Tested on: 1,2-propanediol dehydrogenase
Experiment: Substrate specificity of the enzyme on analogs of 1,2-propanediol using NAD
Type: biochemical, Neisseria
Set-up: concentration or dose not given beside the values
Conditions: substrate with NAD; relative to 1,2-propanediol = 100
Description: The following reagents were added to 12×75 mm plastic tubes:
To each test tube was added 100 μl of a bacterial lysate. Incubations varied in time from being read immediately and continuously for 4 minutes, to allowing the assay tubes to incubate one-half hour before reading. All procedures and incubations were carried out at room temperature.
The samples were read at 340 nm (ultraviolet) on a Perkin-Elmer double beam spectrophotometer. A Honeywell Electronik 194 recorder was used to record absorbency. The tests that were read immediately and continuously for 4 minutes were allowed to record for the same time period. Those tests read after 30 minutes were not read continuously, but had their absorbencies recorded after the incubation period [Activity (A) was determined in the 4 minute monitored assay and in the 30 minute assay].
In order to examine the specificity of the substrate with respect to the enzyme, it was assayed on several analogs of 1,2-propanediol using NAD.

SMILES | % Reactivity [%]
OCC(O)CCl (stereo not shown) [1 chloro 2,3-propanediol] | 0
CCC(O)CO (stereo not shown) [1,2 butanediol] | 10
OCCO [1,2 ethanediol] | 0
CC(O)CO (stereo not shown) [1,2-propanediol] | 100
OCCCO [1,3 propanediol] | 0
CCCO [1-propanol] | 0
CC(C)O [2-propanol] | 0
O=C(CO)CO [Dihydroxyacetone] | 21
CCO [Ethanol] | 0
OCC(O)CO [Glycerol] | 1

Source: patent US4166765A, “Detecting Neisseria bacteria” (Corning Glass Works, priority 1977, dated 1979)
